Source: article PMC7561186, “Rational design of balanced dual-targeting antibiotics with limited resistance” (PLoS Biology, 2020)
Values after ≈ are worked out from the molar mass of the structure shown. Like-named read-outs stand apart in the source and are kept apart here.

Key:
Assay type in all cases: cell-based
[1] = test system: S. aureus clinical isolates; assay: microbe, parasite or virus in culture; conditions: Staphylococcus aureus, read-out: MIC
[2] = test system: S. aureus ATCC 700699 (VISA); assay: microbe, parasite or virus in culture
Procedure: Adaptive laboratory evolution experiments followed an established protocol for automated laboratory evolution and aimed to maximize the drug-resistance increment during a fixed time period. […] Experiments were conducted in 96-well plates, in MHBII medium, by utilizing a checkerboard layout to minimize and monitor cross-contamination. These 96-well deep-well plates (0.5 mL, polypropylene, V-bottom) were covered with sandwich covers (Enzyscreen BV) to ensure an optimal oxygen exchange rate and limit evaporation and were shaken at 150 rpm, 37 °C. […] Following cell transfer, each culture was allowed to grow for 48 hours. At each transfer, cell growth was monitored by measuring the OD600 in a BioTek Synergy 2 plate reader. […] Accordingly, only 1 of the 4 populations was retained for each independently evolving strain. This protocol was designed to avoid population extinction and to ensure that populations with the highest level of resistance are propagated further during adaptive evolution. […] Adaptation of populations was terminated after 20 transfers, i.e., 40 days. Following adaptation, cells from each final population were spread onto MHBII agar plates, and individual colonies were isolated. Next, one colony from each adapted line were subjected to capillary sequencing of gyrB and parE to assess their genotype.

[3] = test system: S. aureus VISA ATCC 700699 GyrB / ParE mutants; assay: MIC of spontaneous resistant mutants (single-step and second-step); conditions: for MIC: Staphylococcus aureus
Procedure: MICs were determined using a standard serial broth microdilution technique according to the CLSI guidelines. Briefly, bacterial strains were inoculated onto MHBII agar plates and were grown overnight at 37 °C. Next, 3 individual colonies from each strain were inoculated into 1 mL MHBII medium and propagated at 37 °C, 250 rpm overnight. In the cases of Enterococcus and Streptococcus sp., cells were plated to BHI agar plates, and BHI broth was used to determine MICs. […] Following dilutions, each well was seeded with 5×10^4 bacterial cells. All measurements were performed in 3 parallel replicates and to avoid possible edge effects in microwell plates, side rows (A and H) were filled with sterile medium. Following inoculations, plates were covered with lids and wrapped in polyethylene plastic bags to minimize evaporation but allow for O2 transfer. Plates were incubated at 37 °C under continuous shaking at 150 rpm for 18 hours. After incubation, OD600 of each well was measured using a BioTek Synergy 2 microplate reader.

SMILES: Cc1[nH]c(C(=O)Nc2nc3c(OCc4ccccc4)cc(C(=O)O)cc3s2)c(Cl)c1Cl [ULD2]
- MIC ([1]; MRSA, S. aureus IHMA 1766357, MRSA / VSSA): 0.12 µg/mL (≈ 0.252 µM)
- MIC ([1]; MSSA / NRS 12 / VISA, S. aureus IHMA 1308244, NRS12, MSSA / VISA): 0.5 µg/mL (≈ 1.05 µM)
- MIC ([1]; MSSA / NRS 13 / VISA, S. aureus IHMA 1308245, NRS13, MSSA / VISA): 0.5 µg/mL (≈ 1.05 µM)
- MIC ([1]; MSSA / NRS 14 / VISA, S. aureus IHMA 1308246, NRS14, MSSA / VISA): 1 µg/mL (≈ 2.1 µM)
- MIC ([1]; MSSA / NRS 17 / VISA, S. aureus IHMA 1308247, NRS17, MSSA / VISA): 1 µg/mL (≈ 2.1 µM)
- MIC ([1]; MSSA / NRS 28 / VISA, S. aureus IHMA 1308249, NRS28, MSSA / VISA): 1 µg/mL (≈ 2.1 µM)
- MIC ([1]; MSSA / NRS 52, S. aureus IHMA 1308252, NRS52, MSSA / VSSA* (*Expected VAN intermediate, confirmed VAN susceptible twice), test date 2018-11-07): 0.12 µg/mL (≈ 0.252 µM)
- MIC ([1]; MSSA / USA100 / VRSA, S. aureus IHMA 672236, VRS6, MSSA / VRSA, USA100): 0.12 µg/mL (≈ 0.252 µM)
- MIC ([1]; MSSA, S. aureus IHMA 1563826, MSSA / VSSA): 0.25 µg/mL (≈ 0.525 µM)
- MIC ([1]; MSSA, S. aureus IHMA 1565492, MSSA / VSSA): 0.12 µg/mL (≈ 0.252 µM)
- MIC ([1]; MSSA, S. aureus IHMA 1569499, MSSA / VSSA): 0.5 µg/mL (≈ 1.05 µM)
- MIC ([1]; MSSA, S. aureus IHMA 1569754, MSSA / VSSA): 0.12 µg/mL (≈ 0.252 µM)
- MIC ([1]; MSSA, S. aureus IHMA 1574202, MSSA / VSSA): 0.25 µg/mL (≈ 0.525 µM)
- MIC ([1]; MSSA, S. aureus IHMA 1575652, MSSA / VSSA): 0.25 µg/mL (≈ 0.525 µM)
- MIC ([1]; MSSA, S. aureus IHMA 1575779, MSSA / VSSA): 0.5 µg/mL (≈ 1.05 µM)
- MIC ([1]; MSSA, S. aureus IHMA 1576329, MSSA / VSSA): 0.5 µg/mL (≈ 1.05 µM)
- MIC ([1]; MSSA, S. aureus IHMA 1577800, MSSA / VSSA): 0.25 µg/mL (≈ 0.525 µM)
- MIC ([1]; MSSA, S. aureus IHMA 1578560, MSSA / VSSA): 0.5 µg/mL (≈ 1.05 µM)
- MIC ([1]; MSSA, S. aureus IHMA 1580233, MSSA / VSSA): 0.12 µg/mL (≈ 0.252 µM)
- MIC ([1]; MSSA, S. aureus IHMA 1580925, MSSA / VSSA): 0.25 µg/mL (≈ 0.525 µM)
- MIC ([1]; MSSA, S. aureus IHMA 1580955, MSSA / VSSA): 0.5 µg/mL (≈ 1.05 µM)
- MIC ([1]; MSSA, S. aureus IHMA 1582586, MSSA / VSSA): 0.5 µg/mL (≈ 1.05 µM)
- MIC ([1]; MSSA, S. aureus IHMA 1582691, MSSA / VSSA): 0.25 µg/mL (≈ 0.525 µM)
- MIC ([1]; MSSA, S. aureus IHMA 1584230, MSSA / VSSA): 0.5 µg/mL (≈ 1.05 µM)
- MIC ([1]; MSSA, S. aureus IHMA 1587279, MSSA / VSSA): 0.5 µg/mL (≈ 1.05 µM)
- MIC ([1]; MSSA, S. aureus IHMA 1591459, MSSA / VSSA): 0.25 µg/mL (≈ 0.525 µM)
- MIC ([1]; MSSA, S. aureus IHMA 1592749, MSSA / VSSA): 0.5 µg/mL (≈ 1.05 µM)
- MIC ([1]; MSSA, S. aureus IHMA 1592751, MSSA / VSSA): 0.25 µg/mL (≈ 0.525 µM)
- MIC ([1]; MSSA, S. aureus IHMA 1594297, MSSA / VSSA): 1 µg/mL (≈ 2.1 µM)
- MIC ([1]; MSSA, S. aureus IHMA 1597120, MSSA / VSSA): 0.5 µg/mL (≈ 1.05 µM)
- MIC ([1]; MSSA, S. aureus IHMA 1597125, MSSA / VSSA): 0.5 µg/mL (≈ 1.05 µM)
- MIC ([1]; MSSA, S. aureus IHMA 1599157, MSSA / VSSA): 0.5 µg/mL (≈ 1.05 µM)
- MIC ([1]; MSSA, S. aureus IHMA 1599506, MSSA / VSSA): 0.12 µg/mL (≈ 0.252 µM)
- MIC ([1]; MSSA, S. aureus IHMA 1602078, MSSA / VSSA): 0.5 µg/mL (≈ 1.05 µM)
- MIC ([1]; MSSA, S. aureus IHMA 1604586, MSSA / VSSA): 0.25 µg/mL (≈ 0.525 µM)
- MIC ([1]; MSSA, S. aureus IHMA 1604609, MSSA / VSSA): 0.5 µg/mL (≈ 1.05 µM)
- MIC ([1]; MSSA, S. aureus IHMA 1609919, MSSA / VSSA): 0.25 µg/mL (≈ 0.525 µM)
- MIC ([1]; MSSA, S. aureus IHMA 1622864, MSSA / VSSA): 0.25 µg/mL (≈ 0.525 µM)
- MIC ([1]; MSSA, S. aureus IHMA 1626392, MSSA / VSSA): 0.5 µg/mL (≈ 1.05 µM)
- MIC ([1]; MSSA, S. aureus IHMA 1713793, MSSA / VSSA): 0.5 µg/mL (≈ 1.05 µM)
- MIC ([2]; Staphylococcus aureus, read-out: MIC in adapted strains): 0.5 µg/mL
- increase in MIC in adapted strains compared with the wild-type strain ([2]; lineages adapted to the same compound, S. aureus VISA): 25 fold
- MIC ([3]; VISA GyrB I175T): 0.088 µg/mL
- MIC ([3]; VISA GyrB R144G): 0.058 µg/mL
- MIC ([3]; VISA GyrB R144I): 0.058 µg/mL
- MIC ([3]; VISA wt, read-out: MIC): 0.02 µg/mL
- MIC ([3]; second-step mutant, selection ULD1 at 16× MIC, GyrB I175T, ParE A120D): 0.25 µg/mL
- MIC ([3]; second-step mutant, selection ULD1 at 16× MIC, GyrB I175T, ParE F95Y): 0.25 µg/mL
- MIC ([3]; second-step mutant, selection ULD1 at 16× MIC, GyrB I175T, ParE T166A): 0.125 µg/mL
- MIC ([3]; second-step mutant, selection ULD1 at 16× MIC, GyrB I175T, ParE T166I): 0.25 µg/mL
- MIC ([3]; second-step mutant, selection ULD1 at 16× MIC, GyrB R144I, ParE A120D): 0.25 µg/mL
- MIC ([3]; second-step mutant, selection ULD1 at 16× MIC, GyrB R144I, ParE F95Y): 0.125 µg/mL
- MIC ([3]; second-step mutant, selection ULD1 at 16× MIC, GyrB R144I, ParE R136G): 0.25 µg/mL
- MIC ([3]; second-step mutant, selection ULD1 at 16× MIC, GyrB R144I, ParE R136L): 0.125 µg/mL
- MIC ([3]; second-step mutant, selection ULD2 at 8× MIC, GyrB I175T, ParE A120D): 1 µg/mL
- MIC ([3]; second-step mutant, selection ULD2 at 12× MIC, GyrB R144I, ParE A120D): 0.125 µg/mL
- MIC ([3]; second-step mutant, selection ULD2 at 12× MIC, GyrB R144I, ParE F95Y): 0.25 µg/mL
- MIC ([3]; second-step mutant, selection ULD2 at 12× MIC, GyrB R144I, ParE R136G): 0.25 µg/mL
- concentration inhibiting all isolated double mutants and laboratory evolved strains ([3]; {}): ≤ 1 µg/mL
- concentration inhibiting all isolated second-step resistant mutants ([3]; {}): ≤ 1 µg/mL
